Settings in all cases: pH 7.4; 30 °C
Assay [1] concerns the target T1, Fatty-acid amide hydrolase 1 (Homo sapiens, UniProt O00519).
T1 sequence (O00519 whole entry): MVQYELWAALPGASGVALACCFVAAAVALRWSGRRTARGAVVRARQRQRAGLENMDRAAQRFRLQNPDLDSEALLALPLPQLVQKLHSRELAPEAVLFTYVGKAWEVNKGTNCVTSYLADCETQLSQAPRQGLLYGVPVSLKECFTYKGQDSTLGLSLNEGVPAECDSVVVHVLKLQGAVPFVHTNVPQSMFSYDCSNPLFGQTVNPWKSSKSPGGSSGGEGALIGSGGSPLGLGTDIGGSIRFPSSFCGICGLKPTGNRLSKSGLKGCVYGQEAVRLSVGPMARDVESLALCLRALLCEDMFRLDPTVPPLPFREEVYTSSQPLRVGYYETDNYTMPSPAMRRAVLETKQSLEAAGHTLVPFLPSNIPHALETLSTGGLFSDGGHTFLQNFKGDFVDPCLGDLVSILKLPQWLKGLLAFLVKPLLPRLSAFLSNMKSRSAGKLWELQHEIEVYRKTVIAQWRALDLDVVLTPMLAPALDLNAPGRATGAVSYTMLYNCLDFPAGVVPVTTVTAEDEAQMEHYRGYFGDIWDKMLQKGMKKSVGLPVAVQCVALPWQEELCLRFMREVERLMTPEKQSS
The assay can be described thus: FAAH Inhibition Assay (5 min Preincubation). The method, then:
(§1) FAAH activity was measured by following the production of ammonia generated from the hydrolysis of oleamide by FAAH. GDH catalyzes the condensation of ammonia and alpha-ketoglutarate to glutamate with a concomitant conversion of NADH to nicotinamide adenine dinucleotide, oxidized form (NAD+), which is spectrophotometrically measured at 340 nm. Test compounds were preincubated with FAAH at room temperature for 5 min. The reaction was initiated with the addition of substrate oleamide. The absorbance at 340 nm was collected over a period of 30 min with reading taken in 10-s intervals using a spectrophotometer.

Assay [2] concerns the target T1, Fatty-acid amide hydrolase 1. Put plainly: FAAH Inhibition Assay (60 min Preincubation). The procedure: as §1, with “60” for “5”
Assay [3] has the same target. The assay can be described thus: FAAH Inhibition Assay (15 min Preincubation). The procedure:
as §1, with “15” for “5”

The target is the same in assay [4]. The assay can be described thus: FAAH Inhibition Assay (30 min Preincubation). The procedure: as §1, with “30” for “5”

On to `O=C(Nc1ccccc1)N1CCN(Cc2ccc3ccccc3n2)CC1` [N-phenyl-4-(quinolin-2-ylmethyl)piperazine-1-carboxamide], for which the IC50 in assay [1] came out at 0.991 µM; in assay [2], 0.033 µM; in assay [3] it was 0.687 µM; in assay [4], 0.473 µM.

What is called IC50 is the midpoint of a concentration-inhibition curve. Read a high IC50 as lower potency.

Source of the values: BindingDB's records for doi:10.1021/bi701378g (Pfizer, 2007).
